Assay: xn = mol fraction of the nth substance listed, in the solute-free solvent

Nc1nc2ccc(OC(F)(F)F)cc2s1 + CCCO + O
solubility (g/100 g solution)
Conditions | 278.15 K | 283.15 K | 288.15 K | 293.15 K | 298.15 K | 303.15 K | 308.15 K | 313.15 K | 318.15 K | 323.15 K
x2 = 0.1138 | 11.3 | 12.7 | 13.8 | 14.7 | 15.4 | 16.1 | 16.7 | 17.1 | 17.7 | 18.2
x2 = 0.1666 | 19.6 | 21.1 | 22.3 | 23.1 | 24 | 24.9 | 25.7 | 26.4 | 27.5 | 28.6
x2 = 0.2306 | 33.4 | 34.7 | 35.8 | 37.2 | 38.1 | 39.2 | 40.1 | 40.9 | 41.9 | 42.8
x2 = 0.3103 | 39.9 | 40.9 | 42.4 | 43.4 | 45 | 46.2 | 47.9 | 49.2 | 50.6 | 52.4
x2 = 0.4116 | 53.3 | 56.1 | 58.5 | 60.7 | 63 | 64.6 | 66.3 | 67.6 | 68.7 | 69.7
x2 = 0.5454 | 54.6 | 56.3 | 57.9 | 59.9 | 61.7 | 63.6 | 65.3 | 66.6 | 67.9 | 68.7
x2 = 0.7292 | 48.8 | 50.6 | 52.6 | 54.6 | 56.6 | 58.2 | 60.2 | 61.6 | 63.1 | 64

c1ccc(-c2ccc(C(c3ccccc3)n3ccnc3)cc2)cc1 (stereo not drawn) + CCCO + O
solubility (g/100 g solution)
Conditions | 278.15 K | 283.15 K | 288.15 K | 293.15 K | 298.15 K | 303.15 K | 308.15 K | 313.15 K | 318.15 K
x2 = 0.03225 | 0.0336 | 0.0464 | 0.0633 | 0.0834 | 0.101 | 0.139 | 0.185 | 0.229 | 0.288
x2 = 0.06974 | 0.0833 | 0.114 | 0.154 | 0.202 | 0.244 | 0.332 | 0.436 | 0.54 | 0.674
x2 = 0.1139 | 0.174 | 0.22 | 0.295 | 0.402 | 0.547 | 0.719 | 0.918 | 1.13 | 1.35
x2 = 0.1666 | 0.308 | 0.417 | 0.558 | 0.724 | 0.884 | 1.18 | 1.52 | 1.9 | 2.34
x2 = 0.2307 | 0.467 | 0.573 | 0.784 | 1.06 | 1.3 | 1.74 | 2.22 | 2.82 | 3.53
x2 = 0.3103 | 0.618 | 0.836 | 1.12 | 1.45 | 1.81 | 2.37 | 3.04 | 3.83 | 4.72
x2 = 0.4117 | 0.601 | 0.91 | 1.27 | 1.77 | 2.4 | 3.06 | 3.87 | 4.77 | 5.68
x2 = 0.5454 | 0.774 | 1.05 | 1.42 | 1.86 | 2.37 | 3.09 | 3.98 | 5.09 | 6.3
x2 = 0.7297 | 0.768 | 1.11 | 1.56 | 2.08 | 2.68 | 3.46 | 4.32 | 5.36 | 6.55

CCOc1ccccc1C(N)=O + CCO + CC#N
solubility (g/100 g solution)
Conditions | x2 = 0.1 | x2 = 0.2 | x2 = 0.3 | x2 = 0.4 | x2 = 0.5 | x2 = 0.6 | x2 = 0.7 | x2 = 0.8 | x2 = 0.9
293.15 K | 3.67 | 4.64 | 5.5 | 6.13 | 6.78 | 6.6 | 6.09 | 5.58 | 4.95
298.15 K | 4.87 | 5.98 | 7.15 | 7.99 | 8.56 | 8.45 | 7.95 | 7.21 | 6.29
303.15 K | 6.28 | 7.75 | 8.84 | 9.86 | 10.4 | 10.1 | 9.58 | 8.65 | 7.54
308.15 K | 8.19 | 9.9 | 11.3 | 12.4 | 13.1 | 13 | 12.2 | 11 | 9.7
313.15 K | 10.5 | 12.4 | 14.4 | 15.7 | 16.2 | 16 | 15 | 13.7 | 11.8
318.15 K | 13.3 | 15.6 | 17.7 | 19.2 | 19.9 | 19.5 | 18.3 | 16.5 | 14.7

COC(=O)C(N)CS.Cl (stereo not drawn) + CCO + ClCCl
solubility (g/100 g solution)
Conditions | x2 = 0.05 | x2 = 0.1 | x2 = 0.2 | x2 = 0.3 | x2 = 0.4 | x2 = 0.5 | x2 = 0.6 | x2 = 0.7 | x2 = 0.8 | x2 = 0.9
283.15 K | 0.323 | 0.991 | 1.88 | 2.62 | 3.2 | 3.86 | 4.64 | 5.33 | 6.02 | 6.92
288.15 K | 0.362 | 1.02 | 2.21 | 3.14 | 3.93 | 4.46 | 5.07 | 5.91 | 6.77 | 7.59
293.15 K | 0.393 | 1.21 | 2.46 | 3.54 | 4.26 | 5.23 | 5.88 | 6.62 | 7.47 | 8.49
298.15 K | 0.43 | 1.4 | 2.7 | 4.09 | 4.98 | 5.89 | 6.66 | 7.51 | 8.75 | 9.98
303.15 K | 0.493 | 1.42 | 3.03 | 4.65 | 5.72 | 6.77 | 7.79 | 8.77 | 10.3 | 11.9

CC1CCC2C(C)C(OC(=O)CCC(=O)O)OC3OC4(C)CCC1C32OO4 (stereo not drawn) + CCO + O
solubility (g/100 g solution)
Conditions | 278.15 K | 283.15 K | 288.15 K | 293.15 K | 298.15 K | 303.15 K | 308.15 K | 313.15 K | 318.15 K
x2 = 0.04179 | 0.113 | 0.146 | 0.183 | 0.23 | 0.279 | 0.348 | 0.427 | 0.517 | 0.627
x2 = 0.08949 | 0.369 | 0.462 | 0.563 | 0.69 | 0.817 | 0.994 | 1.19 | 1.41 | 1.66
x2 = 0.1436 | 0.816 | 0.995 | 1.19 | 1.43 | 1.66 | 1.97 | 2.32 | 2.69 | 3.12
x2 = 0.2067 | 1.38 | 1.65 | 1.94 | 2.29 | 2.62 | 3.07 | 3.55 | 4.06 | 4.64
x2 = 0.2813 | 1.97 | 2.33 | 2.69 | 3.13 | 3.56 | 4.1 | 4.66 | 5.26 | 5.94
x2 = 0.3699 | 2.54 | 2.92 | 3.37 | 3.87 | 4.36 | 4.95 | 5.59 | 6.25 | 6.96
x2 = 0.4771 | 3.08 | 3.48 | 3.92 | 4.47 | 5.03 | 5.67 | 6.34 | 7.03 | 7.74
x2 = 0.6102 | 3.61 | 4.02 | 4.51 | 5.11 | 5.67 | 6.29 | 6.98 | 7.63 | 8.37
x2 = 0.7797 | 4.05 | 4.46 | 4.95 | 5.55 | 6.12 | 6.72 | 7.39 | 8.06 | 8.72

CCOC(=O)OC1=C(c2cc(C)ccc2C)C(=O)NC12CCC(OC)CC2 (stereo not drawn) + CCO + O
solubility (g/100 g solution)
Conditions | 278.15 K | 283.15 K | 288.15 K | 293.15 K | 298.15 K | 303.15 K | 308.15 K | 313.15 K | 318.15 K
x2 = 0.2 | 0.0705 | 0.151 | 0.226 | 0.365 | 0.51 | 0.748 | 1.02 | 1.33 | 1.82
x2 = 0.4 | 1.44 | 1.85 | 2.31 | 2.96 | 3.91 | 5.06 | 6.59 | 8.52 | 11.1
x2 = 0.6 | 2.83 | 3.59 | 4.57 | 5.78 | 7.18 | 9.11 | 11.5 | 14.3 | 17.8
x2 = 0.8 | 3.14 | 3.95 | 4.97 | 6.19 | 7.77 | 9.63 | 12 | 15 | 18.7

Cc1nc2n(c(=O)c1CCN1CCC(c3noc4cc(F)ccc34)CC1)CCCC2 + CCO + O
solubility (g/100 g solution)
Conditions | 278.15 K | 283.15 K | 288.15 K | 293.15 K | 298.15 K | 303.15 K | 308.15 K | 313.15 K
x2 = 0.1436 | 0.173 | 0.214 | 0.262 | 0.329 | 0.397 | 0.487 | 0.592 | 0.73
x2 = 0.2069 | 0.628 | 0.744 | 0.919 | 1.1 | 1.4 | 1.68 | 2.06 | 2.58
x2 = 0.2812 | 1.72 | 2.03 | 2.47 | 2.94 | 3.58 | 4.32 | 5.34 | 6.64
x2 = 0.3627 | 3.31 | 3.98 | 4.66 | 5.53 | 6.67 | 8.06 | 9.77 | 12
x2 = 0.4768 | 4.74 | 5.58 | 6.59 | 7.76 | 9.19 | 11 | 13.2 | 15.9
x2 = 0.6101 | 4.86 | 5.65 | 6.62 | 7.77 | 9.18 | 10.8 | 12.9 | 15.2
x2 = 0.779 | 3.01 | 3.56 | 4.18 | 4.97 | 5.91 | 7.06 | 8.5 | 10.1

Nc1nc2ccc(OC(F)(F)F)cc2s1 + CCO + O
solubility (g/100 g solution)
Conditions | 278.15 K | 283.15 K | 288.15 K | 293.15 K | 298.15 K | 303.15 K | 308.15 K | 313.15 K | 318.15 K | 323.15 K
x2 = 0.2068 | 16 | 19.7 | 23.8 | 26.5 | 32.5 | 38.3 | 43.3 | 47.4 | 51.7 | 55.5
x2 = 0.2812 | 31.4 | 35.5 | 39.9 | 43.9 | 48.1 | 52.1 | 56.1 | 59.6 | 62.5 | 64.8
x2 = 0.3697 | 56.3 | 58.7 | 60.7 | 63.2 | 65.5 | 67.8 | 69.7 | 70.9 | 72.7 | 74
x2 = 0.4772 | 50.7 | 53.3 | 55.4 | 58.1 | 60.6 | 63.6 | 66 | 68 | 69.9 | 71.4
x2 = 0.6099 | 53.2 | 55.1 | 57.4 | 59.7 | 61.7 | 63.6 | 65.3 | 67 | 68.6 | 69.9
x2 = 0.7786 | 52.6 | 54.4 | 57.2 | 59 | 61.3 | 63.1 | 64.9 | 66.7 | 68.2 | 70

O=C(NC(C(=O)O)c1ccccc1)OCc1ccccc1 (stereo not drawn) + CCO + O
solubility (g/100 g solution)
Conditions | x2 = 0.1 | x2 = 0.2 | x2 = 0.3 | x2 = 0.4 | x2 = 0.5 | x2 = 0.6 | x2 = 0.7 | x2 = 0.8 | x2 = 0.9
283.15 K | 0.0534 | 0.628 | 1.49 | 2.83 | 4.36 | 6.29 | 8.19 | 11.1 | 11.8
293.15 K | 0.0958 | 0.786 | 2.21 | 4.37 | 6.76 | 9.75 | 13.4 | 17.7 | 18.1
303.15 K | 0.153 | 1.18 | 3.44 | 7.93 | 12.3 | 17.6 | 21.9 | 26.9 | 27.3
313.15 K | 0.239 | 1.91 | 6.85 | 13.9 | 22.6 | 29.6 | 35.5 | 39.3 | 40.2
323.15 K | 0.396 | 3.17 | 12.7 | 24 | 37.5 | 45.5 | 49.1 | 51.8 | 52.6
